These results are taken from US6855504B2, “In vivo high throughput toxicology screening method” (priority 1999, dated 2005).

Format in all cases: in vivo
One data set has as its system Fly. How it is done:
The chemical is dissolved in water at or near its saturation point. Serial dilutions of this stock solution are used to rehydrate instant fly media (Fisher Scientific). Specifically, one toxicity assay will comprise of instant fly media rehydrated with pure stock solution of a chemical, while another will be rehydrated with a 10% solution of the chemical (in water). This format will be used to generate data over a 4 to 5 log dose range for each chemical tested.
A known quantity of embryos, typically between 40-50, is used as the input. Specifically, 40 to 50 embryos are counted and placed in the receptacle that contains the media/chemical mixture to be tested. The embryos may be counted manually or by automation (e.g., liquid suspension of embryos flowing through a diode). The larva feed on the media/chemical mixture. All aspects of development from larva stage to adult must proceed normally in the presence of the chemical. The only food and water source available to the larva and flies contains the chemical. […] Specifically, Iron, Copper, and zinc have been selected. Sensitive and accurate kits are commercially available to analyze these chemicals down to a concentration of 1 part per million. This will assign quantitative analyses to determine variability between larva in a test receptacle and between larva in different receptacles.
The developing larva and pupa are examined for normal growth and development. Then the adult flies are analyzed for lethality, sterility, developmental defects, and life span alterations. Lethality is determined by dividing the number of adult flies that eclose by the total number of embryos that were placed in the receptacle. Sterility is examined for both males and females by crossing them to normal flies. […] Finally the flies are allowed to live the natural span of their life to determine whether an effect occurred to either shorten or lengthen the average lifespan of the fly.
(§1) Using standard protocols, including the ones described above for administration to flies, a variety of agents were administered at different doses to mice, rats and flies and the LD for each agent was compared.

The next data set relates to Mouse. How it is done:
as §1

The test system of a further data set is Rat. How it is done:
as §1

Another data set deals with fruit fly. In words: AntiToxicity screen: fly survival with toxins with and without EDTA. Particulars: yeast paste: None. An excerpt: This binding can occur in vitro or in vivo. In vivo binding can lead to neutralizing the toxicity of heavy metals to animals.

Like-named read-outs stand apart in the source and are kept apart here.

On to `Clc1cccc(Cl)c1N=C1NCCN1` [clonidine], for which the “Fly (oral LD50 mg/ml)” value in the data set with Fly (in vivo, po) was “.07 mg/mL”. For the same compound, the “Mouse (oral LD50 mg/ml)” value in the data set with Mouse (in vivo, po) came to 135 mg/mL. Also, in the data set on Rat (in vivo, po), the “Rat (oral LD50 mg/ml)” value worked out at 126 mg/mL.
With `[Cu]` [Copper], the entries for the “% survival” value in the data set with fruit fly (fly food: 0.4 mM Copper) and in the data set on fruit fly (fly food: 1.1 mM Copper) were 50% and 0%, respectively.
`NC(=O)c1cccnc1` [niacinamide]: in the data set on Fly (in vivo, po), the “Fly (oral LD50 mg/ml)” value was 5 mg/mL. In addition, the “Mouse (oral LD50 mg/ml)” value in the data set with Mouse (in vivo, po) was found to be 2500 mg/mL. In addition, in the data set with Rat (in vivo, po), the “Rat (oral LD50 mg/ml)” value was 3500 mg/mL.
Take `CN(C)c1ccncc1` [4-dimethyl aminopyridine]: the “Fly (oral LD50 mg/ml)” value in the data set with Fly (oral, chemical in fly media) was “.15 mg/mL”. In the data set with Rat (oral), the “Rat (oral LD50 mg/ml)” value came out at 250 mg/mL.
Consider `Nc1ccccc1N` [phenylenediamine], for which the “Fly (oral LD50 mg/ml)” value with Fly (oral, chemical in fly media) is “.2 mg/mL”. Moreover, in the data set with Mouse (oral), the “Mouse (oral LD50 mg/ml)” value was 366 mg/mL. In the data set with Rat (oral), the “Rat (oral LD50 mg/ml)” value worked out at 510 mg/mL.
On the same counts, the results for `[N-]=[N+]=[N-]` [sodium azide] are “.05 mg/mL”, 27 mg/mL and 27 mg/mL.
In the case of `COP(=O)(OC)C(O)C(Cl)(Cl)Cl` (stereo not shown) [metrifonate], in the data set on Fly (flies, oral LD50 category), the “toxicity category in flies” value is reported as “high toxic range”. The “Fly (oral LD50 mg/ml)” value in the data set on Fly (oral, chemical in fly media) is “.04 mg/mL”. For the same compound, the “toxicity category in mice” value with Mouse (mice, oral LD50 category) is recorded as “moderate toxicity”. The “Mouse (oral LD50 mg/ml)” value with Mouse (oral) was found to be 300 mg/mL. In addition, in the data set with Rat (oral), the “Rat (oral LD50 mg/ml)” value turned out to be 560 mg/mL. The “toxicity category in rats” value in the data set on Rat (rats, oral LD50 category) was “moderate toxicity”.
Regarding `N[C@@H](Cc1ccc(O)c(O)c1)C(=O)O` [L-dopa], in the data set on Fly (oral, chemical in fly media), the “Fly (oral LD50 mg/ml)” value is “.7 mg/mL”. The “Mouse (oral LD50 mg/ml)” value with Mouse (oral) amounted to 2363 mg/mL. In addition, the “Rat (oral LD50 mg/ml)” value in the data set with Rat (oral) came to 1780 mg/mL.
With `O.O.O.O.O.O.O.O.O.O.[Na+].[Na+].[O-]B1OB2OB([O-])OB(O1)O2` [sodium borate], the “Fly (oral LD50 mg/ml)” value in the data set with Fly (oral, chemical in fly media) is 6.5 mg/mL. In the data set with Mouse (oral), the “Mouse (oral LD50 mg/ml)” value worked out at 2000 mg/mL. Moreover, in the data set with Rat (oral), the “Rat (oral LD50 mg/ml)” value was 2660 mg/mL.
Regarding `O=S1(=O)OC(c2cc(Br)c(O)c(Br)c2)(c2cc(Br)c(O)c(Br)c2)c2ccccc21` [bromophenol blue], the “Fly (oral LD50 mg/ml)” value with Fly (oral, chemical in fly media) came out at 10 mg/mL.
Take `[Cl-].[Li+]` [lithium chloride]: the “Fly (oral LD50 mg/ml)” value in the data set with Fly (oral, chemical in fly media) was “.4 mg/mL”. Also, the “Mouse (oral LD50 mg/ml)” value in the data set on Mouse (oral) turned out to be 1165 mg/mL. In addition, the “Rat (oral LD50 mg/ml)” value with Rat (oral) is 526 mg/mL.
As for `[Cl][Cd][Cl]` [cadmium chloride], the “Fly (oral LD50 mg/ml)” value in the data set with Fly (oral, chemical in fly media) was “.1 mg/mL”. In addition, the “Mouse (oral LD50 mg/ml)” value with Mouse (oral) came out at 60 mg/mL. Further, in the data set with Rat (oral), the “Rat (oral LD50 mg/ml)” value came out at 88 mg/mL.
As to `[Zn]` [Zinc], the “% survival” value in the data set with fruit fly (fly food: 2 mM Zinc) is recorded as 50%; with fruit fly (fly food: 6.0 mM Zinc), 0%.
